# US20230026259A1, “CA2 COMPOSITIONS AND METHODS FOR TUNABLE REGULATION” (Obsidian Therapeutics, Inc., priority 2019, published 2023)
# Key:
# Assay type in all cases: cell-based
# NIH3T3 cells [1] = assay: Immunoblotting of cell lysates for GFP after ligand treatment; conditions: 24 hours
# Protocol: The protein expression in the presence of ligand was measured by immunoblotting the cell lysates for GFP.
# The protein expression in the presence of ligand was measured by immunoblotting cell lysates for GFP.
# NIH3T3 cells [2] = assay: Destabilization mutant screening of human CA2 linked to GFP, ligand response by FACS (Valdecoxib, Celecoxib, Acetazolamide)
# NIH3T3 cells [3] = assay: as above; remark: listed apart in the source
# Protocol: To identify destabilizing mutations of human CA2 that are stabilized upon ligand binding to CA2, two rounds of mutant screening were performed, using a lentivirus CA2 mutant library provided by Genscript (China). These methods were used to generate a library of mutant polypeptides using mutagenesis primers and error prone PCR. Lentiviral vectors expressing the template, wild-type human CA2 operably linked to GFP(OT-001986) was also provided by Genscript along with the CA2 mutant library. The library was packaged into lentivirus, transduced into NIH3T3 cells at a multiplicity of infection (MOI) of approximately 0.3 and select stable cell pools were derived by selecting with selection marker puromycin.
# To identify cell pools containing destabilizing mutants of CA2 that are stabilizing when CA2 is bound to its corresponding ligand, cells were sorted using FACS. In the initial round, the bottom 15% of population that was GFP negative in the absence of ligand was selected. Cells were expanded and then treated with 10 μM Celecoxib for 24 hours and harvested for cell sorting. The top 11% GFP positive cells which were also responsive to ligand treatment compared to untreated were collected. Celecoxib was removed from the cultures and replaced with DMSO. […] Genomic DNA was isolated and amplified CA2 mutants were reintroduced to the lentiviral vectors where CA2 was operably linked to GFP. The constructs were transduced into NIH3T3 cells with lentivirus vectors for each clone. The cells were treated with 10 μM Valdecoxib or 10 μM Celecoxib for 24 hours and analyzed by FACS. […] In Table 25, the Construct ID (OT-XXXXXX) refers to the construct which includes the referenced CA2 mutant and the Library ID (LibCXXXXXX) refers to the CA2 mutant itself.
# The response of NIH3T3 cells to varying doses of Valdecoxib or Celecoxib for 24 hours was measured and analyzed by FACS.
# Clones treated with different ligands were compared to examine the behavior of each mutant with the ligands.
# [4] = NIH3T3, Celecoxib 0 μM, 24 hours
# [5] = NIH3T3, Celecoxib 0.03 μM, 24 hours
# [6] = NIH3T3, Celecoxib 0.1 μM, 24 hours
# [7] = NIH3T3, Celecoxib 0.3 μM, 24 hours
# [8] = NIH3T3, Celecoxib 1 μM, 24 hours
# [9] = NIH3T3, Celecoxib 3 μM, 24 hours
# [10] = NIH3T3, Celecoxib 10 μM, 24 hours
# [11] = NIH3T3, Celecoxib 30 μM, 24 hours
# [12] = NIH3T3, Valdecoxib 0 μM, 24 hours
# [13] = NIH3T3, Valdecoxib 0.03 μM, 24 hours
# [14] = NIH3T3, Valdecoxib 0.1 μM, 24 hours
# [15] = NIH3T3, Valdecoxib 0.3 μM, 24 hours
# [16] = NIH3T3, Valdecoxib 1 μM, 24 hours
# [17] = NIH3T3, Valdecoxib 3 μM, 24 hours
# [18] = NIH3T3, Valdecoxib 10 μM, 24 hours
# [19] = NIH3T3, Valdecoxib 30 μM, 24 hours
substance,measurement,setting,value
"CA2 (aa 2-260 of WT, L156H) [LibC000208]","GFP protein expression by immunoblot, Acetazolamide","NIH3T3 cells [1]; NIH3T3 cells, 0.3, 1, 3, 10 or 30 μM Acetazolamide",stabilization of GFP with increasing ligand doses
same,"GFP protein expression by immunoblot, Celecoxib or Valdecoxib","NIH3T3 cells [1]; NIH3T3 cells, 1, 3, 10 or 30 μM Celecoxib or Valdecoxib",stabilization of GFP with increasing ligand doses
same,Fold change,"NIH3T3 cells [2]; NIH3T3, Acetazolamide 0.03 μM vs DMSO",1.57
same,Fold change,"NIH3T3 cells [2]; NIH3T3, DMSO (reference), Acetazolamide experiment",1
same,GFP expression with varying doses of Acetazolamide,"NIH3T3 cells [2]; NIH3T3 cells, 24 hours, FACS",dose response stabilization of GFP expression
same,Median PE,"NIH3T3 cells [3]; NIH3T3, 10 μM Celecoxib",8690
same,SR (stabilization ratio),"NIH3T3 cells [3]; NIH3T3, 10 μM Celecoxib vs DMSO",9.38
same,Median PE,"NIH3T3 cells [3]; NIH3T3, 10 μM Valdecoxib",8006
same,SR (stabilization ratio),"NIH3T3 cells [3]; NIH3T3, 10 μM Valdecoxib vs DMSO",8.65
same,Median FITC / Median PE,"NIH3T3 cells [3]; NIH3T3, Acetazolamide 0.03 μM, 24 hours",1190
same,Fold change,"NIH3T3 cells [3]; NIH3T3, Acetazolamide 0.1 μM vs DMSO",2.82
same,Median FITC / Median PE,"NIH3T3 cells [3]; NIH3T3, Acetazolamide 0.1 μM, 24 hours",2137
same,Fold change,"NIH3T3 cells [3]; NIH3T3, Acetazolamide 0.3 μM vs DMSO",6.23
same,Median FITC / Median PE,"NIH3T3 cells [3]; NIH3T3, Acetazolamide 0.3 μM, 24 hours",4715
same,Fold change,"NIH3T3 cells [3]; NIH3T3, Acetazolamide 1 μM vs DMSO",13.17
same,Median FITC / Median PE,"NIH3T3 cells [3]; NIH3T3, Acetazolamide 1 μM, 24 hours",9970
same,Fold change,"NIH3T3 cells [3]; NIH3T3, Acetazolamide 3 μM vs DMSO",18.36
same,Median FITC / Median PE,"NIH3T3 cells [3]; NIH3T3, Acetazolamide 3 μM, 24 hours",13900
same,"MFI, comparative analysis","NIH3T3 cells [3]; NIH3T3, Acetazolamide 10 μM",16900
same,Fold change,"NIH3T3 cells [3]; NIH3T3, Acetazolamide 10 μM vs DMSO",22.32
same,Median FITC / Median PE,"NIH3T3 cells [3]; NIH3T3, Acetazolamide 10 μM, 24 hours",16900
same,"MFI, comparative analysis","NIH3T3 cells [3]; NIH3T3, Acetazolamide 30 μM",17800
same,Fold change,"NIH3T3 cells [3]; NIH3T3, Acetazolamide 30 μM vs DMSO",23.51
same,Median FITC / Median PE,"NIH3T3 cells [3]; NIH3T3, Acetazolamide 30 μM, 24 hours",17800
same,Med (median fluorescence intensity),NIH3T3 cells [3]; [4],906
same,SR (stabilization ratio),NIH3T3 cells [3]; [4],1
same,Med (median fluorescence intensity),NIH3T3 cells [3]; [5],1017
same,SR (stabilization ratio),NIH3T3 cells [3]; [5],1.12
same,Med (median fluorescence intensity),NIH3T3 cells [3]; [6],1194
same,SR (stabilization ratio),NIH3T3 cells [3]; [6],1.32
same,Med (median fluorescence intensity),NIH3T3 cells [3]; [7],1457
same,SR (stabilization ratio),NIH3T3 cells [3]; [7],1.61
same,Med (median fluorescence intensity),NIH3T3 cells [3]; [8],2221
same,SR (stabilization ratio),NIH3T3 cells [3]; [8],2.45
same,Med (median fluorescence intensity),NIH3T3 cells [3]; [9],5404
same,SR (stabilization ratio),NIH3T3 cells [3]; [9],5.96
same,Med (median fluorescence intensity),NIH3T3 cells [3]; [10],9766
same,SR (stabilization ratio),NIH3T3 cells [3]; [10],10.78
same,Med (median fluorescence intensity),NIH3T3 cells [3]; [11],13200
same,SR (stabilization ratio),NIH3T3 cells [3]; [11],14.57
same,"MFI, comparative analysis, normalized to parental day 1","NIH3T3 cells [3]; NIH3T3, Celecoxib μM (concentration not given)",8707.036
same,"MFI, comparative analysis","NIH3T3 cells [3]; NIH3T3, DMSO",757
same,Median PE,"NIH3T3 cells [3]; NIH3T3, DMSO",926
same,SR (stabilization ratio),"NIH3T3 cells [3]; NIH3T3, DMSO (reference)",1
same,Median FITC / Median PE,"NIH3T3 cells [3]; NIH3T3, DMSO, 24 hours (Acetazolamide experiment)",757
same,Med (median fluorescence intensity),NIH3T3 cells [3]; [12],906
same,SR (stabilization ratio),NIH3T3 cells [3]; [12],1
same,Med (median fluorescence intensity),NIH3T3 cells [3]; [13],1049
same,SR (stabilization ratio),NIH3T3 cells [3]; [13],1.16
same,Med (median fluorescence intensity),NIH3T3 cells [3]; [14],1131
same,SR (stabilization ratio),NIH3T3 cells [3]; [14],1.25
same,Med (median fluorescence intensity),NIH3T3 cells [3]; [15],1219
same,SR (stabilization ratio),NIH3T3 cells [3]; [15],1.35
same,Med (median fluorescence intensity),NIH3T3 cells [3]; [16],1747
same,SR (stabilization ratio),NIH3T3 cells [3]; [16],1.93
same,Med (median fluorescence intensity),NIH3T3 cells [3]; [17],3603
same,SR (stabilization ratio),NIH3T3 cells [3]; [17],3.98
same,Med (median fluorescence intensity),NIH3T3 cells [3]; [18],8284
same,SR (stabilization ratio),NIH3T3 cells [3]; [18],9.14
same,Med (median fluorescence intensity),NIH3T3 cells [3]; [19],11300
same,SR (stabilization ratio),NIH3T3 cells [3]; [19],12.48
same,"MFI, comparative analysis, normalized to parental day 1","NIH3T3 cells [3]; NIH3T3, Valdecoxib μM (concentration not given)",7385.735
same,stabilization with varying doses of Valdecoxib or Celecoxib,"NIH3T3 cells [3]; NIH3T3 cells, 24 hours, FACS",dose dependent stabilization
